# Test results: US20050014849A1, “Antifungal phenylethylene” (priority 2001, published 2005)
# Experiments:
# [1] = tested on: T1, bovine brain tubulin; assay: Tubulin polymerization assay; assay type: biochemical; details: 1 mg/ml tubulin; 20 min incubation at 30° C.
# T1 construct: Electrophoretically homogeneous bovine brain tubulin [12]
# Procedure: (§1) Electrophoretically homogeneous bovine brain tubulin [12] was used in studies to evaluate the effects of TMPN on in vitro tubulin polymerization and the binding of […] (Dupont-NEN) to tubulin. These studies were performed as described previously. In the polymerization assay, varying drug concentrations were added to 1 mg/ml tubulin to determine the amount of drug that would inhibit the extent of the reaction by 50% (20 min incubation at 30° C.) (IC50 value). In the colchicine binding assay, the effect of varying drug concentrations on the binding of 2 μg/ml colchicine to 100 μg/ml tubulin was measured after 10 min at 37° C. (control reaction about 50% complete).
# [2] = tested on: T1, bovine brain tubulin; assay: Colchicine binding assay; details: 5 μM (combretastatin A-4 1.6 μg/ml; TMPN 1.2 μg/ml); 10 min at 37° C.
# Procedure: as §1
compound,measurement,setting,value
"COc1ccc(/C=C\c2cc(OC)c(OC)c(OC)c2)cc1O [combretastatin A-4, reference compound]",IC50 for inhibition of the extent of tubulin assembly,[1],0.32 ± 0.02 µg/mL
same,inhibition of [^3H]colchicine binding to tubulin,[2],98+1%
